The results in this text go back to patent publication EP2047849A1 (KTB Tumorforschungsgesellschaft mbH, priority 2007, dated 2009).

Substitutions are numbered along the chain they refer to.

What all share (test): 33PanQinase Activity Assay (in vitro protein kinase activity assay)
Assay type in all cases: biochemical
What all share (conditions): recombinant purified kinase, 1 µM [γ-33P]-ATP

In test [1] the target is T1, FAK (Homo sapiens, UniProt Q05397).
T1 construct: made in house; host or cells: Sf9 insect cells (baculovirus)
As for the experimental part: (§1) Inhibition of protein kinases by compounds was measured in proprietary protein kinase activity assay (^33PanQinase® Activity Assay) using recombinant purified protein kinases. All protein kinases were expressed in Sf9 insect cells as recombinant GST-fusion proteins or His-tagged proteins by means of the baculovirus expression system. All kinases were produced from human cDNAs. Kinases were purified by affinity chromatography using either GSH-agarose (Sigma) or Ni-NTH-agarose (Qiagen). The purity of the protein kinases was examined by SDS-PAGE/Coomassie staining. Activity was measured by determination of the incorporation of radio labelled phosphate into a substrate. The reaction cocktails for all enzymes contained 60 mM HEPES-NaOH, 10 mM Tris/HCl, pH 7.5, 20 mM NaCl, 3 mM MgCl2, 3 mM MnCl2, 3 µM Na-orthovanadate, 2 mM DTT, 4% glycerol, 1 µM [γ-^33P]-ATP (approx. 6 x 10^5 cpm per well), protein kinase , and substrate. Table 1: Protein kinases inhibited with high potency in vitro by compound PQ-012, PQ-013, PQ-014, PQ-016, PQ-041, PQ-042.

Test [2] deals with T2, PDGFR-beta (Homo sapiens, UniProt P09619).
T2 construct: made in house; host or cells: Sf9 insect cells (baculovirus)
As for the experimental part: as §1

Test [3] addresses T3, PDGFR-alpha (Homo sapiens, UniProt P16234).
T3 construct: made in house; host or cells: Sf9 insect cells (baculovirus)
On the procedure:
as §1

In test [4] the target is T4, FLT3 wt (Homo sapiens, UniProt P36888).
T4 construct: made in house; host or cells: Sf9 insect cells (baculovirus)
T4 sequence (P36888 27-993): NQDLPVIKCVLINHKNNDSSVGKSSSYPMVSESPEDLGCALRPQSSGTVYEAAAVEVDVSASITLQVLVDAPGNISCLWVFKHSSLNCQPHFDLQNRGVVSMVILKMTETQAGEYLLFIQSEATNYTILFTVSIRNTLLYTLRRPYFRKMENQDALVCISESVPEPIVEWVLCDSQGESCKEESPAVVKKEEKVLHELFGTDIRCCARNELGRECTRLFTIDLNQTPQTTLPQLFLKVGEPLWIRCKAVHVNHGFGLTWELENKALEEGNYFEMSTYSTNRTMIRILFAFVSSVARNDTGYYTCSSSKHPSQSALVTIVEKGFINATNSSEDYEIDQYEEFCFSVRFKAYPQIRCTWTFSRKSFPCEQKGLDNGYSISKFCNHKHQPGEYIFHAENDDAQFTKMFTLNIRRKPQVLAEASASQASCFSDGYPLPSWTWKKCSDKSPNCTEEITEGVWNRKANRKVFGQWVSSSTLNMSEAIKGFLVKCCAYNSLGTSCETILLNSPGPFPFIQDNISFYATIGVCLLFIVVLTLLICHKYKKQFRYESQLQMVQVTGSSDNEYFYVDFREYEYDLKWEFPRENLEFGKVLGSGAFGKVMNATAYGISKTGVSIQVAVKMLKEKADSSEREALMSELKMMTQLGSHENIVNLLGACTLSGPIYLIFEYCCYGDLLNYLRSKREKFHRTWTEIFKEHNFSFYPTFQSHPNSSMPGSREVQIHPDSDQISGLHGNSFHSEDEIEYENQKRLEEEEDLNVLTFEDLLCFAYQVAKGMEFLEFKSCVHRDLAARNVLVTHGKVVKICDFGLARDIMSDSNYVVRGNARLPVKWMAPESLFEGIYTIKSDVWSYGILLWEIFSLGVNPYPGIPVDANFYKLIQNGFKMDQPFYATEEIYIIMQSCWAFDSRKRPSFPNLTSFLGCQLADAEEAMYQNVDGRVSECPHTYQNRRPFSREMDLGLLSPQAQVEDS
On the procedure:
as §1

Test [5] has as its target T5, CHK2 (Homo sapiens, UniProt O96017).
T5 construct: made in house; host or cells: Sf9 insect cells (baculovirus)
On the procedure: as §1

Test [6] deals with T6, FLT3 D835Y (Homo sapiens, UniProt P36888, D835Y).
T6 construct: made in house; host or cells: Sf9 insect cells (baculovirus)
T6 sequence (P36888 27-993 D835Y): T4 sequence (P36888 27-993) with D809Y
On the procedure:
as §1

T5 sequence (O96017 whole entry): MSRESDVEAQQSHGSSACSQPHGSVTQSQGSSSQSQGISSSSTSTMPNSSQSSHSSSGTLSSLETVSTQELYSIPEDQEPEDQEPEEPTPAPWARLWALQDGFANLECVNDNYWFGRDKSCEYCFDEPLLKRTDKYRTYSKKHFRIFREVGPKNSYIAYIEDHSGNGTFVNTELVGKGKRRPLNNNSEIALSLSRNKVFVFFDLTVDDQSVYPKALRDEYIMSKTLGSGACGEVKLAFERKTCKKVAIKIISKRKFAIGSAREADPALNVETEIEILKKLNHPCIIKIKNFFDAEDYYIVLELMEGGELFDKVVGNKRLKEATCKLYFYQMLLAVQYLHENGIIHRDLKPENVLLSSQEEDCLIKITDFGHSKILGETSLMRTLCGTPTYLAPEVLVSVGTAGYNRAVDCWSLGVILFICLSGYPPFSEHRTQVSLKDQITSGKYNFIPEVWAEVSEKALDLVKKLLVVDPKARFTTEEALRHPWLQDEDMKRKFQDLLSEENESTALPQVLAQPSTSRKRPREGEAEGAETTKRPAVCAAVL
T2 sequence (P09619 33-1106): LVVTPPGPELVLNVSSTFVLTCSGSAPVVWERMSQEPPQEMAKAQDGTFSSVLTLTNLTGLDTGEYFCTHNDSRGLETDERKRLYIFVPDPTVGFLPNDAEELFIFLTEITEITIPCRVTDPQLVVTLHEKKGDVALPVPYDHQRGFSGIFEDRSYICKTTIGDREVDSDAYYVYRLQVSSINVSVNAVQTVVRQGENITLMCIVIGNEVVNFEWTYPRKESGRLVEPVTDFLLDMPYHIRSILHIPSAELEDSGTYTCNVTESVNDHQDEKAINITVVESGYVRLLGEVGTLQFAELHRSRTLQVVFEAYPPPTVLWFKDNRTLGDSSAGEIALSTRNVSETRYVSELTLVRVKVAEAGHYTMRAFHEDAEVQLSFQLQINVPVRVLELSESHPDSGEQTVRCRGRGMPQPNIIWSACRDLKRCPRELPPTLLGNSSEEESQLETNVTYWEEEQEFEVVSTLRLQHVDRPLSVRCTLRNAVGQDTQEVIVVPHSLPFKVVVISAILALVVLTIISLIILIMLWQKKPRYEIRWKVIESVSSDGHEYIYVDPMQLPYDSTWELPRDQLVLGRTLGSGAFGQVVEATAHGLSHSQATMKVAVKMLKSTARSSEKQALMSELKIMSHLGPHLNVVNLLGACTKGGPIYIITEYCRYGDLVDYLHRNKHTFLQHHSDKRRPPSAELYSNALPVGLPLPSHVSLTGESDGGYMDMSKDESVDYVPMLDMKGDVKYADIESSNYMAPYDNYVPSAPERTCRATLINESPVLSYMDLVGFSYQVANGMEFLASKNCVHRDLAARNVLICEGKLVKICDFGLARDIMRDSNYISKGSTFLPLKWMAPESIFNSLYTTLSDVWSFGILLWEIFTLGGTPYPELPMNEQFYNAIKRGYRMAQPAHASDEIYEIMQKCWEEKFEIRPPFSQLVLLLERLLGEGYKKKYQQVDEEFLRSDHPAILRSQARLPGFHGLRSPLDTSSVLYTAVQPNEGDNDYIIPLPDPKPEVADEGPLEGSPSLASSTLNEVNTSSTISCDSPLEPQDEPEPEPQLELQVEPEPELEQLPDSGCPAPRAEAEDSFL
T3 sequence (P16234 24-1089): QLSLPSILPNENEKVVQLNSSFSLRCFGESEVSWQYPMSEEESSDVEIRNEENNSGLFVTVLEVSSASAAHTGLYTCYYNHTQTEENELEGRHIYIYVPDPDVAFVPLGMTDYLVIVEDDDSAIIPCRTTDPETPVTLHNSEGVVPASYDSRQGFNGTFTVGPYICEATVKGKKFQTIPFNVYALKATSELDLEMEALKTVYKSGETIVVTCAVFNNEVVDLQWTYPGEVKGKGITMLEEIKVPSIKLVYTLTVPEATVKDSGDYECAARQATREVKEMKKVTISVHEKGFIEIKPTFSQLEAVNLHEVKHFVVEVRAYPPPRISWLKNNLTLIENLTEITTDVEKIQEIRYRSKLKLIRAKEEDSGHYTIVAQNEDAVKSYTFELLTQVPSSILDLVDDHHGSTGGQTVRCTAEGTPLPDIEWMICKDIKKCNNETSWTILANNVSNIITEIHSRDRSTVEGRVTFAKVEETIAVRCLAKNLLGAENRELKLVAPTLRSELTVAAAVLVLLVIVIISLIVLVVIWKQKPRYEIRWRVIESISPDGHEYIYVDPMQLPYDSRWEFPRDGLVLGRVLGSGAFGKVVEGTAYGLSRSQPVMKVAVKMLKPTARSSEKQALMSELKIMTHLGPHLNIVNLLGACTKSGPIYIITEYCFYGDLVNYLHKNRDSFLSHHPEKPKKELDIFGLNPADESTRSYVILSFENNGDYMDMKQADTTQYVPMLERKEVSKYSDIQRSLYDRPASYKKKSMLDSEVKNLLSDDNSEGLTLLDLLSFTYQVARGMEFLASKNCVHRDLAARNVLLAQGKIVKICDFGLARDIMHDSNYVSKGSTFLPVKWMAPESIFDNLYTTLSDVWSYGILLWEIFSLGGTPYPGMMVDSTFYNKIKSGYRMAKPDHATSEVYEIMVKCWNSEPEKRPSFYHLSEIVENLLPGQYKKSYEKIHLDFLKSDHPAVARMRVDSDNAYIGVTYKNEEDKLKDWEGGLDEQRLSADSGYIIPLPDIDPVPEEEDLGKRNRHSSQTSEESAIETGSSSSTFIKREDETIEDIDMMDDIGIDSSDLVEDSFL
T1 sequence (Q05397 whole entry): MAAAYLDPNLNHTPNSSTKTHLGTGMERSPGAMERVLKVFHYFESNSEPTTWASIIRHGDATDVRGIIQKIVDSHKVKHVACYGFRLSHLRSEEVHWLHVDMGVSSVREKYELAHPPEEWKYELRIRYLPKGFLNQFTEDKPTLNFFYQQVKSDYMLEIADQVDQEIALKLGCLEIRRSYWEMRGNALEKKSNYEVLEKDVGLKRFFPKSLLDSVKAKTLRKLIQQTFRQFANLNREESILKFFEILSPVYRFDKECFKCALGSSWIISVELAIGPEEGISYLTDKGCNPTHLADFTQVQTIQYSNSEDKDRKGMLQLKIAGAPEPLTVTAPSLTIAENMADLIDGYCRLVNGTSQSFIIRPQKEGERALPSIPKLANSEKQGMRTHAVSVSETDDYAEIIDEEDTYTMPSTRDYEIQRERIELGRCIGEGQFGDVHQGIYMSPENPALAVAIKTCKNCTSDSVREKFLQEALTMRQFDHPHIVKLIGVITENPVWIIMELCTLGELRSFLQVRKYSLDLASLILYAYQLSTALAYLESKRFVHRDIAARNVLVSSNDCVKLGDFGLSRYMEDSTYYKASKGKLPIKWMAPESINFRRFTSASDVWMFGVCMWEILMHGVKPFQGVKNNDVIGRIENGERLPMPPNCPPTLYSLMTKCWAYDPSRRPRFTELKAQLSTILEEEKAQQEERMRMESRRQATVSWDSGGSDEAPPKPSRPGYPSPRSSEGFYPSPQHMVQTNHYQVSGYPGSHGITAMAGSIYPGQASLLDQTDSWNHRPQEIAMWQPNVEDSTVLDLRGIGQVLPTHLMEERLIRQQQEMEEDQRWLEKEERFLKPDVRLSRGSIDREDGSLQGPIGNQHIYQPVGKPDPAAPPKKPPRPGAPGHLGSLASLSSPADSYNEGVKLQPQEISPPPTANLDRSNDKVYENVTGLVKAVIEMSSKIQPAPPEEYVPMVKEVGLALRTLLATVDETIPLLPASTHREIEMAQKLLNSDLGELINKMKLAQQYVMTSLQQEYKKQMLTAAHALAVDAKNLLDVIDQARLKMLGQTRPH

Broadly, the IC50 is the concentration that gives 50% inhibition. As for `CN(C)CC(O)Cn1c2ccc(O)cc2c2c3c(c4c5cc(O)ccc5n(C)c4c21)C(=O)NC3=O` (racemic), the IC50 in test [1] was found to be 1 µM; in test [2], 0.7 µM; in test [3], 2 µM; in test [4], 0.11 µM; in test [5] it was 22 µM; in test [6], 0.064 µM.
In the case of `CN(C)CCCn1c2ccc(O)cc2c2c3c(c4c5cc(O)ccc5n(C)c4c21)C(=O)NC3=O` [PQ-012, 12-(3-Dimethylaminopropyl)-6,7,12,13-tetrahydro-3,9-dihydroxy-12-methyl-5,7 dioxo-5H-indolo[2,3-a] pyrrolo [3,4-c]-carbazole], the IC50 in test [1] was 0.014 µM; in test [2], less than 0.003 µM; in test [3] it was less than 0.003 µM; in test [4] it was less than 0.003 µM; in test [5], 0.023 µM; in test [6], less than 0.003 µM.
As to `COc1ccc2c(c1)c1c3c(c4c5ccccc5n(C)c4c1n2CCC#N)C(=O)NC3=O` [PQ-014, 13-(2-Cyanoethyl)-6,7,12,13-tetrahydro-3-methoxy-12-methyl-5,7 dioxo-5H-indolo[2,3-a] pyrrolo [3,4-c]-carbazole], the IC50 in test [1] stood at 1.2 µM; in test [2] it was 0.13 µM; in test [3], 0.11 µM; in test [4], 0.0046 µM; in test [5], 2.1 µM; in test [6], 0.0035 µM.
Regarding `NC(=O)CCn1c2ccccc2c2c3c(c4c5ccccc5[nH]c4c21)C(=O)NC3=O` [PQ-041, 12-(2-Carbamidoethyl)-6,7,12,13-tetrahydro-5,1 dioxo-5H-indolo[2,3-a] pyrrolo [3,4-c]-carbazole], the IC50 came to 2.4 µM in test [1]; 0.15 µM in test [2]; 0.13 µM in test [3]; 0.0056 µM in test [4]; 0.74 µM in test [5]; 0.0039 µM in test [6].
For the molecule `Cn1c2ccccc2c2c3c(c4c5ccccc5[nH]c4c21)C(=O)NC3=O` [PQ-042, 6,7,12,13-Tetrahydro-12-methyl-5,7 dioxo-5H-indolo [2,3-a] pyrrolo [3,4-c]-carbazole], the IC50 in test [1] was more than 10 µM; in test [2] it was more than 10 µM; in test [3], more than 10 µM; in test [4], 0.38 µM; in test [5], more than 10 µM; in test [6] it was 0.068 µM.
